What was measured:
[1] = Toxicity (general statement, no method described); details: no data or method given
tuberculosis = details: according to Ind. J. Med. Res. 40 (1952), p. 4-5, and Ind. J. Pharm. 13 (1951), p. 3-5; cited from earlier work

For `Nc1ccc(C(=O)O)c(O)c1` [PAS, 4-aminosalicylic acid, reference compound], the toxicity [1] was “remarkably low”.

In the case of `CC(=O)Nc1ccc(C(=O)O)c(O)c1` [Ac-PAS, N-acetyl-p-aminosalicylic acid], the toxicity [1] was “remarkably low”.

For `O=C(O)c1ccc(N=Nc2ccc(C(=O)O)c(O)c2)cc1O` [4,4'-azo-bis-salicylic acid], the activity against tuberculosis (tuberculosis) is listed as “inactive” and the toxicity [1] is listed as “remarkably low”.
